Data taken from US20120264810A1, “COMPOSITIONS AND METHODS FOR ENHANCING CELLULAR UPTAKE AND INTRACELLULAR DELIVERY OF LIPID PARTICLES” (The University of British Columbia, priority 2009, published 2012).
Where a name gives a salt, the structure may show the parent alone.

Columns and labels:
Raw264.7 cells [1] = test: Drug screen and titration: siRNACy3-LN uptake and punctate distribution (Cellomics ArrayScan); assay type: cell-based, mouse; conditions: for Normalized Punctate Distribution / Normalized siRNA Uptake: 10 μg/mL siRNACy3 in DLinDMA LN, ~10 μM drug, 24 h; for Normalized Punctate Distribution: normalized to absence of drug; for Normalized siRNA Uptake: total Cy3 intensity normalized to absence of drug; for punctate / cytosolic distribution of siRNACy3 in titration study: drug 0-30 μM, 10 μg/mL siRNACy3-LN; for increase in siRNACy3 accumulation: drug at 30 μM, 10 μg/mL siRNACy3 in DLinDMA LNs, normalized to no drug
Protocol: (§1) Cells were fixed with 3% paraformaldehyde in PBS in the presence of Hoescht for 15 minutes. Cells were rinsed and stored in PBS supplemented with calcium chloride and magnesium sulfate. Plates were scanned and analyzed with the Cellomics ArrayScan VTI.
as §1

Raw264.7 cells [2] = test: Chloroquine / CQ-lipid LN formulations: LN uptake (SPDiO) and siRNA distribution (Cellomics, confocal); assay type: cell-based, mouse
Protocol: All lipid stocks (DSPC, PEG-s-DMG, Cholesterol, SP-DiOC18, chloroquine lipid and DLinDMA) were dissolved and maintained in 100% ethanol. Lipids were mixed together at a molar % ratio of 40:10:39.8:10:0.2 DLinDMA:PEG-s-DMG:cholesterol:DSPC:SP-DiO18 or 40:10:35.8:9:0.2 with 5% CQ-lipid or 35:10:39.8:0.2 with 5% CQ-lipid. Lipid mixture was added drop-wise to the formulation buffer (50 mM citrate, pH 4.0) to form multi lamellar vesicles (MLV). Large unilamellar vesicles (LUVs) were formed upon extrusion of MLVs through two stacked 80 nm Nuclepore polycarbonate filters using an extruder from Northern Lipids (Vancouver, BC, Canada) at ˜300 psi. In order to encapsulate siRNA, siRNA was added drop-wise to preformed vesicles and incubated at 35° C. for 30 minutes with constant mixing. Removal of ethanol and neutralization of formulation buffer were performed by dialysis in PBS for 16 hours. Distribution of size was determined by dynamic light scattering using a NICOMP 370 particle sizer (Nicomp Particle sizing Inc., Santa Barbara, Calif.). siRNA encapsulation efficiency was determined by removal of free siRNA using VivaPureD MiniH columns (Sartorius Stedim Biotech) from samples collected before and after dialysis. The encapsuted siRNA from eluants were then extracted and quantified at 260 nm. siRNA to lipid ratio was determined by measurement of cholesterol content in vesicles by using the Cholesterol E enzymatic assay from Wako Chemicals USA (Richmond, Va.).
Raw264.7 cells grown on glass coverslips were treated with 10 μg/mL Cy5-siRNA-LN/SPDiO or siRNACy3-LN/SPDiO constituted of +/−5% CQ-lipid in the presence of 35 or 40% DLinDMA. The overall uptake of LNs was monitored with SPDiO and the distribution of siRNA was monitored using either Cy5- or Cy3-labelled siRNA. Cells were fixed with 3% paraformaldehyde in PBS in the presence of Hoescht for nuclear staining for 15 minutes. Glass coverslips were mounted onto slides and analyzed by confocal microscopy (Olympus FV1000). Fluorochromes were excited at 488 nm (DiO), 594 nm (Alexa-594), 550 nm (Cy3) and at 633 nm (Cy5) and images were collected sequentially with 60× oil immersion objective lens.
Raw264.7 cells were treated with LNs consisting of 40% DLinDMA in the absence or presence of 10 or 30 μM chloroquine or formulation consisting of 35% DLinDMA with 5% CQ-lipid (˜14.7 μM chloroquine). Total lipid uptake was estimated by cellular SPDiO fluorescence. When cells were treated for 16 hours, the uptake of SPDiO was dependent on the concentration of chloroquine as well as concentration of LNs (FIG. 4A). When Raw264.7 cells were treated only with DLinDMA LNs, the intensity of SPDiO increased in respect to concentration. […] The Cy5-siRNA distribution at 16 hours was relatively more “punctate” than that at 24 hours (FIGS. 4B and C).

[3] = test system: GAPDH protein expression in Raw264.7 cells; test: GAPDH siRNA-LN knockdown by western blotting in Raw264.7 cells; assay type: cell-based, mouse
Protocol: (§2) FIG. 5: Raw264.7 cells were treated for 24 hours with siRNACy3 encapsulated in DLinDMA LNs in the presence or absence of 5% CQ-lipid. A lipid label, SPDiO, was incorporated into the LN to monitor uptake. LN uptake was assessed by (A) SPDiO fluorescence and distribution of siRNA was assessed by (B) Cy3 fluorescence using the Cellomics ArrayScan VTI. (C) Raw264.7 cells were incubated with the same LN formulations as in (B) for 24 hours at 10 μg/mL siRNACy3. siRNACy3 distribution was examined by confocal microscopy. (D) GAPDH siRNA was formulated into LN particles comprising of 40% DLinDMA with 0% CQ-lipid or 40% DLinDMA with 5% CQ-lipid. Raw264.7 cells were treated with 5, 10 and 20 μg/mL of siRNA for 48 and 72 hours. GAPDH protein expression was assessed by western blotting against anti-GAPDH and anti-actin. (E) LNCaP cells were treated accordingly as in (D).
(§3) Perhaps most importantly, we wanted to determine whether the enhanced cytosolic distribution of siRNACy3 observed with the CQ-lipid correlated to enhanced gene knockdown. Glyceraldehyde 3-phosphate dehydrogenase (GAPDH) is an ubiquitously expressed cytosolic protein and therefore knockdown efficiency of encapsulated siRNA can be tested in different cell lines (Barber et al., 2005). Raw264.7 cells were treated with LN of varying concentration of GAPDH siRNA for 24, 48 and 72 hours. Total protein was isolated and analyzed for GAPDH levels by immunoblotting. […] The function of GAPDH siRNA was specific since actin expression was unaltered (FIG. 5D). To confirm the function of the CQ-lipid in the LN-siRNA-mediated gene knockdown, GAPDH silencing was also assessed in LNCaP cells (FIG. 5E).

[4] = test system: GAPDH protein expression in LNCaP cells; test: GAPDH siRNA-LN knockdown in LNCaP cells; assay type: cell-based, human
Protocol: as §2, §3

HeLa cells = test: LNP uptake in HeLa cells (SPDiO fluorescence, Cellomics / confocal); assay type: cell-based, human; conditions: for LNP uptake with cardiac glycosides: 0.05, 0.15 and 1.5 μM, 24 h
Protocol: All cell lines were seeded at 5000 to 20,000 cells/well of 96-well ViewPlate (PerkinElmer, Shelton, Conn., USA) in 100 μl of medium and were allowed to grow overnight. Fresh medium containing 5 or 10 μg/ml of siRNA encapsulated in LNP was added the next day. Small molecules were either added manually or pinned from 1000-fold stocks in DMSO using a pinning robot equipped with 0.4 mm pins (BioRobotics, Cambridge, UK). Cells were incubated for 24 h. Cells were then washed once in PBSCM (1×PBS containing […] CaCl2), fixed in 3% paraformaldehyde containing Hoescht's stain for 15 min, washed once in PBSCM and stored in 100 μl of PBSCM.
Plates were imaged using a Cellomics Arrayscan VTI HCS Reader (Thermo Scientific, Pittsburgh, Pa., USA). Images were acquired using a 20× PlanFluor objective and a XF93 filter set. Object identification and image analysis were performed using the Cellomics Compartmental Analysis algorithm. Cellular SPDiO and siRNA-Cy3 fluorescence intensities were measured for a minimum of 400 cells and the average pixel intensity was examined. For confocal microscopy, cells grown on glass coverslips were washed once in 1×PBS, fixed in 3% paraformaldehyde containing Hoechst's stain for 15 min, washed again and mounted on slides. Images were captured on an Olympus FV1000 (Olympus, Center Valley, Pa., USA) laser scanning microscope and cellular SPDiO fluorescence intensity was analyzed using ImageJ (NIH, http://rsb.info.nih.gov/ij/).

Na+/K+-ATPase = conditions: Paula et al., 2005; cited from earlier work
[5] = 30 μM free chloroquine, or 35% DLinDMA LNs with 5% CQ-lipid, 16 hours

CC(=O)c1ccc(S(=O)(=O)NC(=O)NC2CCCCC2)cc1 [Acetohexamide]
Normalized Punctate Distribution (Raw264.7 cells [1]): 1.48
Normalized siRNA Uptake (Raw264.7 cells [1]): 1.32

Nc1nc(O)c2[nH]nnc2n1 [Azaguanine-8]
Normalized Punctate Distribution (Raw264.7 cells [1]): 0.07
Normalized siRNA Uptake (Raw264.7 cells [1]): 0.54

CCCCC/C=C\C/C=C\CCCCCCCCOCC(CNCCCCNc1ccnc2cc(Cl)ccc12)OCCCCCCCC/C=C\C/C=C\CCCCC (stereo not shown) [CQ-lipid]
Cy5-siRNA punctate levels (Raw264.7 cells [2]; [5]): significant reduction
intracellular DiO accumulation (LN uptake) (Raw264.7 cells [2]; 5% CQ-lipid:35% DLinDMA LN, highest dose, versus 0% CQ-lipid:40% DLinDMA): substantially reduced intracellular DiO accumulation
siRNACy3 punctate signal (Raw264.7 cells [2]; 40% DLinDMA LNs with 5% CQ-lipid, 24 hours): lowered punctate signal
uptake of LN particles (SPDiO fluorescence) (Raw264.7 cells [2]; 40% DLinDMA LNs with versus without 5% CQ-lipid, 24 hours): comparable intracellular SPDiO fluorescence
GAPDH protein expression ([3]; 20 μg/mL GAPDH siRNA in LN containing 5% CQ-lipid, 48 hours): decreased GAPDH protein expression
gene knockdown occurred earlier than with LN without CQ-lipid ([3]; 20 μg/ml siRNA in LN containing the CQ-lipid): 24 h
GAPDH knockdown ([3]; 24 hours): no knockdown
knockdown of GAPDH ([3]; 72 hours): more pronounced
knockdown of GAPDH ([4]; LN containing 5% CQ-lipid, 72 hours): More pronounced knockdown effect
knockdown of GAPDH ([4]; all concentrations of LN containing 5% CQ-lipid, 48 hours): Enhanced knockdown of GAPDH

CCN(CC)CCCC(C)Nc1ccnc2cc(Cl)ccc12 (stereo not shown) [Chloroquine]
Normalized Punctate Distribution (Raw264.7 cells [1]): 0.10
Normalized siRNA Uptake (Raw264.7 cells [1]): 0.34
punctate / cytosolic distribution of siRNACy3 in titration study (Raw264.7 cells [1]): significant loss of punctate distribution of siRNACy3 at 10 μM
siRNA showing punctate distribution (Raw264.7 cells [2]; 10 μM chloroquine, 24 hours (without chloroquine maximum 25-30%)): ~10%
uptake of LNs (SPDiO fluorescence) (Raw264.7 cells [2]; 10 μM free chloroquine, 40% DLinDMA LNs, 16 hours): no significant difference
Cy5-siRNA punctate levels (Raw264.7 cells [2]; 10 μM free chloroquine, 16 hours): largely indifferent
Cy5-siRNA punctate levels (Raw264.7 cells [2]; [5]): significant reduction

C[N+]1(C)CCC(=C(c2ccccc2)c2ccccc2)CC1 [Diphemanil methylsulfate]
Normalized Punctate Distribution (Raw264.7 cells [1]): 0.34
Normalized siRNA Uptake (Raw264.7 cells [1]): 0.70
punctate / cytosolic distribution of siRNACy3 in titration study (Raw264.7 cells [1]): only showed enhanced cytosolic distribution of siRNACy3 at 30 μM

Cn1c(=O)c2c(ncn2CC(O)CO)n(C)c1=O (stereo not shown) [Diprophylline]
Normalized Punctate Distribution (Raw264.7 cells [1]): 1.55
Normalized siRNA Uptake (Raw264.7 cells [1]): 1.38
increase in siRNACy3 accumulation (Raw264.7 cells [1]): Approximately 2 fold

C[C@H]1O[C@@H](O[C@H]2CC[C@]3(C=O)[C@H]4CC[C@]5(C)[C@@H](C6=CC(=O)OC6)CC[C@]5(O)[C@@H]4CC[C@]3(O)C2)C[C@H](O)[C@@H]1O [Helveticoside]
LNP uptake with cardiac glycosides (HeLa cells): enhanced LNP uptake at a higher concentration
presence of LNs in cells by confocal microscopy (HeLa cells; treated for 24 hrs): substantial amount of LNs
relative binding affinity among the 9 cardiac glycosides (Na+/K+-ATPase): weakest binder

CC(=O)OCC(=O)[C@@]1(O)CC[C@H]2[C@@H]3CCC4=CC(=O)C=C[C@]4(C)[C@@]3(F)[C@@H](O)C[C@@]21C [Isoflupredone acetate]
Normalized Punctate Distribution (Raw264.7 cells [1]): 0.07
Normalized siRNA Uptake (Raw264.7 cells [1]): 0.50

Cc1cc(NC(=O)C2=C(O)c3ccccc3S(=O)(=O)N2C)no1 [Isoxicam]
Normalized Punctate Distribution (Raw264.7 cells [1]): 1.53
Normalized siRNA Uptake (Raw264.7 cells [1]): 1.42
increase in siRNACy3 accumulation (Raw264.7 cells [1]): ~3 fold

CC(COc1ccccc1)NC(C)C(O)c1ccc(O)cc1 (stereo not shown) [Isoxsuprine HCl, isoxsuprine hydrochloride]
Normalized Punctate Distribution (Raw264.7 cells [1]): 0.33
Normalized siRNA Uptake (Raw264.7 cells [1]): 0.51

N[C@@H](Cc1ccc(O)c(O)c1)C(=O)O [Levodopa]
Normalized Punctate Distribution (Raw264.7 cells [1]): 1.43
Normalized siRNA Uptake (Raw264.7 cells [1]): 1.28

c1ccc2c(CC3=NCCN3)cccc2c1 [Naphazoline HCl, naphazoline hydrochloride]
Normalized Punctate Distribution (Raw264.7 cells [1]): 1.49
Normalized siRNA Uptake (Raw264.7 cells [1]): 1.32

C[C@@H]1O[C@@H](O[C@@H]2C=C3CCC4C(CC[C@]5(C)[C@@H](c6ccc(=O)oc6)CC[C@]45O)[C@@]3(C)CC2)[C@H](O)[C@H](O)[C@H]1O (stereo partly shown) [Proscillaridin A]
LNP uptake with cardiac glycosides (HeLa cells): required the least amount to cause an increased LNP uptake
relative binding affinity among the 9 cardiac glycosides (Na+/K+-ATPase): strongest binder

COc1cc(C(=O)NCc2ccc(OCCN(C)C)cc2)cc(OC)c1OC [Trimethobenzamide HCl, Trimethobenzamide hydrochloride]
Normalized Punctate Distribution (Raw264.7 cells [1]): 0.31
Normalized siRNA Uptake (Raw264.7 cells [1]): 0.70
punctate / cytosolic distribution of siRNACy3 in titration study (Raw264.7 cells [1]): increased punctate distribution of siRNACy3 with increasing drug concentration
